Experimental data from US20260345594A1, “Methods and Compositions for Controlling Jet Lag, Chronotype, or Circadian Rhythm” (University of Pittsburgh - Of the Commonwealth System of …, priority 2022, published 2026).

Experiments:
Melanopsin = target: T1, Melanopsin (Homo sapiens, UniProt Q9UHM6); test: Melanopsin (OPN4) Presto-Tango luciferase screen; format: cell-based; details: HTLA cells, LED light, agonist alone, read-out: EC50 of receptor activation by the ligand
T1 construct: V2 tail; expressed in transfected cells; host or cells: HTLA cells (HEK293 cell line with tTA-dependent luciferase reporter and β-arrestin2-TEV fusion)
T1 sequence (Q9UHM6 1-478): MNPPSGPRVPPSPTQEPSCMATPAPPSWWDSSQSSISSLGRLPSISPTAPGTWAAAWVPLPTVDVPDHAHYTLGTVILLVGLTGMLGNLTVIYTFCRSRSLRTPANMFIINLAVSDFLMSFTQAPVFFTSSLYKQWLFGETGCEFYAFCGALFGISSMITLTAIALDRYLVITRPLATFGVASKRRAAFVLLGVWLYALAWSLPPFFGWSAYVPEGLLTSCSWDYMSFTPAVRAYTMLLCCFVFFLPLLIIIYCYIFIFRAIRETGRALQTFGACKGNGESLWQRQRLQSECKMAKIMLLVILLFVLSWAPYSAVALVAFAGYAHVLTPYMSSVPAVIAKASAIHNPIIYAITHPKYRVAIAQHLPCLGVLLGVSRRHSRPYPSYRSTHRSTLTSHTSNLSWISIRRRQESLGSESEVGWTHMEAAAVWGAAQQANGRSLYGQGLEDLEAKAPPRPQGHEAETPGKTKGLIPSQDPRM
Source text: (§1) Presto-Tango Assay: Empty Tango plasmid was generated from Addgene plasmid #66225. Melanopsin was amplified by pcr from pAAV-GFAP104-melanopsin-mCherry (Addgene plasmid #122630) and AVPR1a from hV1aR-GFP (Addgene plasmid #67846) and cloned to generate OPN4- and AVPR1a-Tango plasmid. HTLA cells (a HEK293 cell line stably expressing a tTA-dependent luciferase reporter and a β-arrestin2-TEV fusion gene—a gift from Bryan Roth) was transfected with OPN4-Tango or AVPR1A-Tango plasmids. The HTLA Cells are grown in DMEM supplemented with 10% FBS, 100 U/ml penicillin and 100 μg/ml streptomycin, 2 μg/ml puromycin and 100 μg/ml hygromycin B (HTLA medium) in a humidified atmosphere at 37 °C in 5% CO2 (HTLA Medium).
(§2) Luciferase activity was measured using Bright-Glo Luciferase (Promega #E2160) assay.
(§3) Day 1: HTLA cells were plated in at 9 to 10×10^6 cells per 100 mm cell culture dish in HTLA Medium.
(§4) Day 2: The cells were transfected using the Polyethylenimine method. […]
(§5) Day 5: The medium containing drug solutions were removed from the wells (by aspiration or shaking), and 50 μL per well of Bright-Glo solution (Promega) diluted 10-fold in filter-sterilized assay buffer, which consisted of 20 mM HEPES and 1×HBSS at pH 7.4 and 1 mM Glucose were added to each well. After incubation for 15 to 20 minutes at room temperature, luminescence was counted in a BioTek-Flx-800 luminescence counter.

[1] = target: T2, AVPR1a (human vasopressin 1a receptor, V1AR) (Homo sapiens, UniProt P37288); test: AVPR1a Presto-Tango luciferase screen; format: cell-based
T2 construct: V2 tail; expressed in transfected cells; host or cells: HTLA cells (HEK293 cell line with tTA-dependent luciferase reporter and β-arrestin2-TEV fusion)
Source text: as §1, §2, §3, §4, §5

T2 sequence (P37288 whole entry, the tested form may be a part): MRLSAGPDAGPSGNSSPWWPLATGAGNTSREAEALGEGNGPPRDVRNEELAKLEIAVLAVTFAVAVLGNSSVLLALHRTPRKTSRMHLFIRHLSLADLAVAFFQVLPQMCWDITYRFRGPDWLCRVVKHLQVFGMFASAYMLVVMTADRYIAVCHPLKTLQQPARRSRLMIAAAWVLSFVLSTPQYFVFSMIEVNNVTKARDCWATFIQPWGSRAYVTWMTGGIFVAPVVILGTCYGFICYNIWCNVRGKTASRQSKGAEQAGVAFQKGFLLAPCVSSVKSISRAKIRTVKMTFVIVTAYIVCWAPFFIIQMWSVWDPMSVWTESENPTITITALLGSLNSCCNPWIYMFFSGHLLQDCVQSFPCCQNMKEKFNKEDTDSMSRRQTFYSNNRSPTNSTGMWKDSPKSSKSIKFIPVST

| EC50 (Melanopsin) [nM] | IC50 ([1]; 5 nM Arginine Vasopressin, 16 hrs illumination (FIG. 9), inhibitor, read-out: EC50 (allosteric inhibition of AVPR1a, ratio of luciferase activity over positive control)) [nM] | V1AR inhibition validated by in vitro experiments ([1]; in words) | Compound |
| --- | --- | --- | --- |
| ~250 |  |  | CC1=C(/C=C/C(C)=C\C=C\C(C)=C\C=O)C(C)(C)CCC1 [9-cis-Retinol] |
|  | 360 | effective V1AR inhibitors | Cc1ccc2[nH]cc(CCNC(=O)Cn3c(=O)c(=O)n(Cc4ccccc4)c4ccccc43)c2c1 [MolPort-007-880-661] |
